In US11389423B2, “Pharmaceutical composition, excipient for the composition and use of the composition” (priority 2018, dated 2022):

Legend:
mice (male and female) = assay: Single dose (acute) toxicity study in mice; type: in vivo
Method: (§1) The single-dose (acute) toxicity study was carried out with different groups of rats and mice (male and female) and according to the procedures recommended by OECD (2001) and ANVISA (2013).
(§2) After a 6 h-fasting period, the animals' body weight was determined, and the dose of the synthetic CBD was calculated. Two single doses (1000 and 2000 mg/kg) of synthetic CBD were administered orally (with the aid of a gavage probe) and intraperitoneally in different groups of rats and mice (male and female). Other different groups of rodents were treated with placebo and were considered as control groups.
(§3) The animals were carefully observed for any toxicity signs within the first eight hours after treatment, and daily for a period of 14 days. On the 15th day all animals were euthanized, and the respective anatomopathological investigations were performed on the 15th day after the treatments.

[1] = system: Salmonella typhimurium TA100; assay: AMES test, strain TA100; type: cell-based; conditions: TA100, with (+S9) and without (-S9) metabolic activation, 62.5-375 μg/plate
Excerpt: For the AMES test, the TA 100 and TA 98 strains of Salmonella typhimurium were used. The strain TA 100, which detects mutagens causing base pair replacement in DNA, contains a mutation in the hisG gene (hisG46), which codes for the first histidine biosynthesis enzyme, with the CG pair as the preferred point for reversion. The strain TA 98 has a mutation in the hisD gene to reverse eight repetitive GC residues and detects mutagenic compounds causing the DNA reading frame to shift. According to the methodology of direct incorporation in plates, developed by Maron and Ames (1983), different concentrations of CBD-SINT (375, 250, 125 and 62.5 μg/plate) were mixed with 0.1 mL of the bacteria culture and 2 mL of surface agar (top agar), supplemented with traces of histidine and biotin. For the tests with metabolic activation, 0.5 mL homogenized microsomal fraction S9 of rat liver (post-mitochondrial fraction, supplemented with a cofactor, prepared from the liver of rodents treated with an enzymatic inducing agent, arochloror 1254) (MOLTOX—Molecular Toxicology, USA) were added. As a negative control, double-distilled water (vehicle) was used. As a positive control for TA98, 4-nirophenylenediamine (NPD) dissolved in DMSO was used at a concentration of 10 μg/plate. […] After this period, the number of reversing colonies per plate was counted. […]

rats (male and female) = assay: Single dose (acute) toxicity study in rats; type: in vivo
Method: as §1, §2, §3

[2] = system: DNA of male and female rats; conditions: rats male and female, 500, 1000 and 2000 mg/kg orally, 48 hours, peripheral blood
Method: The negative control group received placebo by gavage and the positive control was treated with cyclophosphamide monohydrate (20 mg/kg—Sigma-Aldrich) intraperitoneally.

[3] = 1000 mg/kg and 2000 mg/kg intraperitoneally, single dose
[4] = 1000 and 2000 mg/kg, oral or intraperitoneal
[5] = 1000 and 2000 mg/kg, oral or intraperitoneal, 14 days
[6] = 1000 and 2000 mg/kg, oral or intraperitoneal, after the first 8 h
[7] = doses up to 2000 mg/kg orally or intraperitoneally, 14 days

Structure (SMILES): C=C(C)[C@@H]1CCC(C)=C[C@H]1c1c(O)cc(CCCCC)cc1O [CBD-SINT, Cannabidiol]
- abdominal contortions during the first 8 hours (mice (male and female); [3]): occasional abdominal contortions
- activity during the first 8 hours of observation (mice (male and female); [3]): significant decrease in its activity
- daily feed and water consumption compared to placebo (mice (male and female); [4]): no change
- final body weight and body weight gains vs placebo (mice (male and female); [5]): similar
- appearance and general behavior pattern until the end of the 14-days observation (mice (male and female); [6]): no significant changes
- absolute (g) or relative (%) weight of all organs vs placebo (mice (male and female); after 14 days): no significant differences
- histopathological analyzes (mice (male and female); day 15): no significant changes
- macroscopic examination of vital organs (mice (male and female); day 15): did not disclose any abnormalities
- deaths (LD50 not set forth) (mice (male and female); [7]): no deaths were observed
- frequency of reversible mutants with the increase in concentration [1]: no increase
- mutagenicity ratios (MR) [1]: less than 2
- abdominal contortions during the first 8 hours (rats (male and female); [3]): occasional abdominal contortions
- activity during the first 8 hours of observation (rats (male and female); [3]): significant decrease in its activity
- daily feed and water consumption compared to placebo (rats (male and female); [4]): no change
- final body weight and body weight gains vs placebo (rats (male and female); [5]): similar
- appearance and general behavior pattern until the end of the 14-days observation (rats (male and female); [6]): no significant changes
- absolute (g) or relative (%) weight of all organs vs placebo (rats (male and female); after 14 days): no significant differences
- histopathological analyzes (rats (male and female); day 15): no significant changes
- macroscopic examination of vital organs (rats (male and female); day 15): did not disclose any abnormalities
- deaths (LD50 not set forth) (rats (male and female); [7]): no deaths were observed
- DNA damage (Damage Index and Damage Frequency) vs negative control (placebo) [2]: none of the tested doses of CBD-SINT induced any significant changes
